Patent US12071624B2, “Antisense oligonucleotide targeting ARL4C molecule, and nucleic acid drug using antisense oligonucleotide” (OSAKA UNIVERSITY, priority 2018, dated 2024)
[AmNA] = 2',4'-bridged nucleic acid with N-methyl amide bridge (AmNA); d = 2'-deoxy (DNA)

What was measured:
PIK3CD mRNA = PIK3CD mRNA amount by real-time PCR in HLE cells; format: cell-based, human; conditions: HLE cells transfected with ASO at 25 nM
Method: (§1) HLE cells, HCT116 cells, and A549 cells were transfected with 25 to 50 nM ASO and 10 to 20 nM siRNA using Lipofectamine 3000 (Invitrogen, Carlsbad, CA, USA) or RNAiMAX (Invitrogen). Transfected cells were used in the experiments 36 to 48 hours after the end of the transfection.
(§2) Cell migration assays and quantitative real-time PCR analyses were performed according to the methods reported by Fujii S et al. (Oncogene 2015; 34: 4834-44).
HLE cells were treated with 25 μM SecinH3 (inhibitor of Arf nucleotide-binding site opener (ARNO)) or 50 μM NSC23766 (Rac inhibitor), and the amount of PIK3CD mRNA was measured by real-time PCR; the results are shown in (c) of FIG. 5.
HLE cells were transfected with control ASO, ASO-1316, and ASO-3223 at 25 nM, and the PIK3CD mRNA amount was measured by real-time PCR; the results are shown in (g) of FIG. 5. In addition, an anti-phosphorylated AKT (pAKT S473) antibody and an anti-AKT antibody as probes were caused to act on cell lysates of HLE cells transfected with control ASO, ASO-1316, and ASO-3223; the results are shown in (h) of FIG. 5.

HCT116/Luc cells = assay: Metastatic tumor model, HCT116/Luc cells transplanted into spleen with liver metastasis; format: in vivo, mouse
Method: HCT116/Luc cells (2.5×10^5 cells) were suspended in 100 μl of phosphate buffer solution (PBS), and were injected into the spleens of 8-week-old male nude mice (BALB/cAJcl-nu/nu, CLEA Japan, Inc.) under anesthesia. After 19 days had elapsed since the transplantation, ASO (50 μg/body; about 2.5 mg/kg) was subcutaneously administered twice a week. Mice were euthanized 47 days after the HCT116/Luc cell transplantation and were subjected to histological analysis.
Tumor growth analysis was performed by recording bioluminescence images at a frequency of once a week, in the following manner: VivoGlo luciferin (30 mg/ml) was administered intraperitoneally, and 10 minutes after the administration of VivoGlo luciferin, recording was carried out using an IVIS imaging system (Xenogen Corp., Alameda, CA, USA).
In a metastatic tumor model in which HCT116 cells were transplanted into the spleen and the tumor was caused to metastasize to the liver, influences of the subcutaneous administration of ARL4C ASO (ASO-1316 and ASO-3223) on the liver tumor was examined.
In an experiment in the metastatic tumor model, HCT116/Luc cells were injected into the spleens (day 0), luciferase signals were detected in the livers 19 days after the injection; on and after this day, control ASO, ASO-1316, and ASO-3223 were subcutaneously administered at a frequency of twice a week. When 19, 35 and 47 days had elapsed, the fluorescence of luciferase emitted from the liver tumors was observed, and when 47 days had elapsed, fluorescence intensities of luciferase emitted from the liver tumors were quantified with software of IVIS/Kodak; the results are shown in (a) of FIG. 10. […] In addition, when 47 days had elapsed since the transplantation of HCT116/Luc cells, the tumors formed in the livers were observed, and the tumors formed in the livers were immunostained with an anti-ARL4C antibody; the results are shown in (b) of FIG. 10. The tumors formed in the livers were immunostained with an anti-Ki-67 antibody when 47 days had elapsed since the transplantation of HCT116/Luc cells; the results are shown in (c) of FIG. 10.

ARL4C mRNA = ARL4C mRNA amount by real-time PCR in HLE cells; format: cell-based, human; conditions: for effect of reducing the ARL4C mRNA amount at a low concentration: HLE cells transfected at 0.5 to 25 nM
Method: as §1, §2
HLE cells and HCT116 cells were transfected with the above-described seven types of ARL4C ASOs and the control ASO at 25 nM, and the ARL4C mRNA amounts were measured by real-time PCR; the results thereof are shown in (a) of FIG. 4. […] In order to optimize the effect of these three types of ARL4C ASOs, four bases were added to each of these three types of ARL4C ASOs, whereby ASO-1312, ASO-1450, and ASO-3223 each of which consisted of 19 bases were produced. With these six types of ARL4C ASOs (ASO-1316, ASO-1312, ASO-1454, ASO-1450, ASO-3225, and ASO-3223), the knockdown effect on ARL4C was further studied.
HLE cells were transfected with ARL4C ASOs (ASO-1316, ASO-1312, ASO-1454, ASO-1450, ASO-3225, and ASO-3223) at 25 nM each, and the ARL4C mRNA amounts were measured by real-time PCR; the results are shown in (c) of FIG. 3. In addition, HLE cells were transfected with ARL4C ASOs (ASO-1316, ASO-1312, ASO-3225, and ASO-3223) at 0.5 to 25 nM each, and the ARL4C mRNA amounts were measured by real-time PCR; the results are shown in (b) of FIG. 4.
HLE cells were treated with 10 μM PD184161 or 10 nM CTNNB1 siRNA (siRNA against CTNNB1), and the ARL4C mRNA amount was measured by real-time PCR; the results are shown in (a) of FIG. 5. In addition, HLE cells were treated with 10 nM CTNNB1 siRNA (siRNA against CTNNB1), and the ARL4C mRNA amount was measured by real-time PCR; the results thereof are shown in (a) of FIG. 6. PD184161 is a compound that inhibits MEK without knocking down […].

## ASO-1316: 15-mer AmNA/phosphorothioate ASO targeting ARL4C, base sequence SEQ ID NO: 1 gcatacctcaggtaa; Table 1 SEQ ID NO 13 (antisense GCATACCTCAGGTAA; AmNA and phosphorothioate modified, pattern not given here)
PIK3CD mRNA
  PIK3CD mRNA amount / PIK3CD expression: suppressing PIK3CD expression
HCT116/Luc cells; 50 μg/body subcutaneously twice a week from day 19, until day 47
  growth of liver tumors (luciferase): the growth of the tumors until 47 days after the injection could be suppressed
HCT116/Luc cells; day 47
  ARL4C expression level in liver tumor (immunostaining): decreased ARL4C expression levels
  number of Ki-67 positive cells in liver tumor: decreased numbers of Ki-67 positive cells
ARL4C mRNA; HLE cells transfected at 25 nM
  ARL4C mRNA amount: reduced the ARL4C mRNA amount
ARL4C mRNA
  effect of reducing the ARL4C mRNA amount at a low concentration: high effects of reducing the ARL4C mRNA amount

## ASO-3223: 19-mer ARL4C ASO of Table 1, SEQ ID NO 55 (antisense NNNGGTTACAGTATTTNNC; sugars from the 5' end [AmNA]3 d13 [AmNA]2 d1, backbone, methylation of C and the base at N not given here; further chemistry not fully specified)
PIK3CD mRNA
  PIK3CD mRNA amount / PIK3CD expression: suppressing PIK3CD expression
HCT116/Luc cells; subcutaneous twice a week from day 19
  antitumor effect in the metastatic tumor model: did not exert an antitumor effect
ARL4C mRNA
  effect of reducing the ARL4C mRNA amount at a low concentration: high effects of reducing the ARL4C mRNA amount
